Some results are limits rather than exact numbers.

The values that follow come from patent US9278968B2, “Imidazopyridine compounds” (ASTELLAS PHARMA INC., priority 2012, dated 2016).

In test [1] the target is human purified sGC (heterodimer of sGCα1 and sGCβ1) (Homo sapiens (Human), UniProt Q02108+Q02153). The test can be described thus: sGC activation test (cGMP produced, HTRF). The test is classed as biochemical. Particulars: for EC50: maximum activity of Preparation Example 200 compound (maximum 100 μM) taken as 100%, with SNP, read-out: EC50 (concentration giving 50% of maximum activity). As to the method: The activity of sGC was evaluated by measuring the amount of cGMP produced by human purified sGC.
Chain of human purified sGC (heterodimer of sGCα1 and sGCβ1) (Q02108 whole entry, the tested form may be a part): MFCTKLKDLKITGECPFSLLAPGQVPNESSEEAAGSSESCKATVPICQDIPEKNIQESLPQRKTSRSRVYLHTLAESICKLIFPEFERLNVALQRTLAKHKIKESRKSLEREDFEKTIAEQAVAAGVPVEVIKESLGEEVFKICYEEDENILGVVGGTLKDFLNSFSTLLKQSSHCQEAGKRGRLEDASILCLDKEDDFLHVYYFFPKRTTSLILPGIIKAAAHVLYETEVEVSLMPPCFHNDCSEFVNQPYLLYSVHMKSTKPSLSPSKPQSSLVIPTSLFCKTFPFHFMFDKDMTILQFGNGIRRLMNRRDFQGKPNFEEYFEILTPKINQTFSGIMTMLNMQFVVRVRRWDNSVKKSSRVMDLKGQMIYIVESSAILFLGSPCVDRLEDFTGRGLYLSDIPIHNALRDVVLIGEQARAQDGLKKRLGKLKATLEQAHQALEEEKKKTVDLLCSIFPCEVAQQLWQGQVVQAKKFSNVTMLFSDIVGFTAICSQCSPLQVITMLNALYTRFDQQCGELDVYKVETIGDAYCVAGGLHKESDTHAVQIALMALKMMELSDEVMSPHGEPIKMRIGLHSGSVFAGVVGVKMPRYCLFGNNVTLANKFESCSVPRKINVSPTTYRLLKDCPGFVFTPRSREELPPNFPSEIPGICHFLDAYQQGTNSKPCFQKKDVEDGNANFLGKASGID
Chain of human purified sGC (heterodimer of sGCα1 and sGCβ1) (Q02153 whole entry, the tested form may be a part): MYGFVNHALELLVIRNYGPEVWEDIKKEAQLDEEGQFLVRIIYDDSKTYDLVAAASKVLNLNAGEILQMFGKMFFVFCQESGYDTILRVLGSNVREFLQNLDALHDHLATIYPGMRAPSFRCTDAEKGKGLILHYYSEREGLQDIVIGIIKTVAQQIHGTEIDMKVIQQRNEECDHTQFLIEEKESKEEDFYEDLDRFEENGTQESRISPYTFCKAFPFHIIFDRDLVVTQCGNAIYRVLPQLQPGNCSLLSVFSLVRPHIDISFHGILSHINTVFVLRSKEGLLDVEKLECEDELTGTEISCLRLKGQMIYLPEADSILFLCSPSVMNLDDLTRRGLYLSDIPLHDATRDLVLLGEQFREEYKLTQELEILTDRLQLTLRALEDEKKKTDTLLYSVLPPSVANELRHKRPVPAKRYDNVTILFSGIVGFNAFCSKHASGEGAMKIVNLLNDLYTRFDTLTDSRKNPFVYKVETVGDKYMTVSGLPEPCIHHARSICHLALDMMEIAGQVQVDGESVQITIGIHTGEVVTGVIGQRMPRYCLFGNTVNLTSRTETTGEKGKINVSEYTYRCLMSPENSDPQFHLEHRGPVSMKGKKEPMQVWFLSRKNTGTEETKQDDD
Using an sGCα 1 gene (NCBI accession No. BC028384.2) and an sGCβ1 gene (NCBI accession No. BC047620.1), an N-terminal FLAG tag-fused sGCα1 and an sGCβ1 expression baculovirus were prepared. These viruses were transfected into insect cells Sf9 (Cat. No. 11496-015, Gibco) to express a protein. From the cell lysates of the insect cells, heterodimers of the N-terminal FLAG tag-fused sGCα1 and sGCβ1 were purified with an M2 Affinity Gel (Sigma-Aldrich, Inc.) to obtain a human sGC.
An Example compound was dissolved in DMSO and diluted 20-fold with ultrapure water. 2 μL of the diluted Example compound solution (maximum concentration of 100 μM), 2 μL of a substrate solution [0.5 μM triethanolamine buffer solution, 0.03 μM dithiothreitol, 0.01 μM GTP, 0.04 μM MgCl2, and 0.03 μM sodium nitroprusside (SNP)], and 6 μL of a human enzyme suspension were added to 384-well plates (manufactured by Greiner Bio-One), and incubated at room temperature for one hour. The measurement of the amount of cGMP was carried out, using an HTRF reagent (Cisbio).
The sGC activation action of the Example compound was calculated as an Example compound concentration which gives 50% of a maximum activity (EC50), in which the maximum activity by the addition of a compound shown in Preparation Example 200, 8-(cyclohexylmethoxy)-N-[(1R)-2-hydroxy-1-phenylethyl]-2-methylimidazo[1,2-a]pyridine-3-carboxamide hydrochloride (maximum 100 μM), is taken as 100%. Further, the maximum activity of sGC with the addition of 8-(cyclohexylmethoxy)-N-[(1R)-2-hydroxy-1-phenylethyl]-2-methylimidazo[1,2-a]pyridine-3-carboxamide hydrochloride is 10-fold or more relative to the sGC activation without the addition of the compound, and it is recognized that the compound has a good sGC activating action. […] The test results of some Example compounds that are the compounds of the formula (I) of the present invention are shown below. Further, in Tables, Ex. represents Example number.
(In general: In TR-FRET formats the signal depends on donor and acceptor labels being close together.)

Test [2] has as its system hind limb blood flow in rats anesthetized with pentobarbital. Briefly: Blood flow increasing action in vivo (hind limb blood flow, anesthetized rats). Also noted: species or system Wistar male rats. As to conditions: oral, 2 hours after administration, effective when blood flow rate 130% or more of solvent group. As to the method:
The hind limb blood flow increasing action in rats anesthetized with pentobarbital was confirmed by the following test method.
Wistar male rats, 11- to 14-week (Japan SLC, Inc.) were used. An administration liquid was prepared by adding N,N-dimethyl formamide, Polyethylene Glycol 400, TWEEN 80, a 0.5% methyl cellulose aqueous solution, a 0.5 M aqueous sodium hydrogen carbonate solution, and 0.1 M hydrochloric acid to the test compound and dissolving the Example compound in an appropriate manner depending on the compound. The prepared administration liquid was orally administered, and 2 hours later, the hind limb blood flow increasing action was evaluated under anesthesia with intraperitoneally administration of 60 mg/kg of pentobarbital The hind limb blood flow was measured using a laser blood flow imaging device (PIM II Integral). By taking the average blood flow rate of a group with the administration of a solvent as 100%, the compound was evaluated to be effective when the blood flow rate was 130% or more by the administration of the compound.

Take `Cc1nc2c(OCc3c(F)cccc3F)cccn2c1C(=O)N[C@@](C)(CO)c1ccc(CO)cc1` (stereo in doubt) [Example 107a, 8-[(2,6-difluorobenzyl)oxy]-N-{1-hydroxy-2-[4-(hydroxymethyl)phenyl]propan-2-yl}-2-methylimidazo[1,2-a]pyridine-3-carboxamide]: the EC50 in test [1] came out at 1.5 µM. Also, the “hind limb blood flow increasing action” value in test [2] (3 mg/kg) was “exhibited a blood flow increasing action”.

`Cc1nc2c(OCc3c(F)cccc3F)cccn2c1C(=O)N[C@@](C)(CO)c1nnn(C)n1` (stereo in doubt) [Example 108a, 8-[(2,6-difluorobenzyl)oxy]-N-[1-hydroxy-2-(2-methyl-2H-tetrazol-5-yl)propan-2-yl]-2-methylimidazo[1,2-a]pyridine-3-carboxamide]: the EC50 in test [1] was 4.6 µM. In test [2] (0.3 mg/kg), the “hind limb blood flow increasing action” value is listed as “exhibited a blood flow increasing action”.

Turning to `CCc1nnc(C(C)(CO)NC(=O)c2c(C)nc3c(OCc4c(F)cccc4F)cccn23)o1` (stereo not shown) [Example 1, 8-[(2,6-difluorobenzyl)oxy]-N-[2-(5-ethyl-1,3,4-oxadiazol-2-yl)-1-hydroxypropan-2-yl]-2-methylimidazo[1,2-a]pyridine-3-carboxamide], the EC50 in test [1] amounted to 5.5 µM. Besides, in test [2] (1 mg/kg), the “hind limb blood flow increasing action” value is recorded as “exhibited a blood flow increasing action”.

Take `Cc1nc2c(OCc3c(F)cccc3F)cccn2c1C(=O)NC(C)(CO)c1nnn(C(F)F)n1` (stereo not shown) [Example 6, 8-[(2,6-difluorobenzyl)oxy]-N-{2-[2-(difluoromethyl)-2H-tetrazol-5-yl]-1-hydroxypropan-2-yl}-2-methylimidazo[1,2-a]pyridine-3-carboxamide]: the EC50 in test [1] amounted to 1.7 µM. Moreover, in test [2] (0.1 mg/kg), the “hind limb blood flow increasing action” value is given as “exhibited a blood flow increasing action”.

As for `Cc1nc2c(OCc3c(F)cccc3F)cccn2c1C(=O)NC(C)(CO)c1nnn(C)n1` (stereo not shown) [Example 7a, 8-[(2,6-difluorobenzyl)oxy]-N-[1-hydroxy-2-(2-methyl-2H-tetrazol-5-yl)propan-2-yl]-2-methylimidazo[1,2-a]pyridine-3-carboxamide], the EC50 in test [1] stood at 9.6 µM. The “hind limb blood flow increasing action” value in test [2] (3 mg/kg) is “exhibited a blood flow increasing action”.

On to `Cc1nc2c(OCc3c(F)cccc3F)cccn2c1C(=O)N[C@@](C)(CO)c1ccccn1` [Example 11], for which, in test [1], the EC50 amounted to 1.3 µM. The “hind limb blood flow increasing action” value in test [2] (1 mg/kg) is reported as “exhibited a blood flow increasing action”.

Turning to `Cc1nc2c(OCc3c(F)cccc3F)cccn2c1C(=O)N[C@@](C)(CO)c1ccccc1F` [Example 18], in test [1], the EC50 turned out to be 1.6 µM. In test [2] (1 mg/kg), the “hind limb blood flow increasing action” value is reported as “exhibited a blood flow increasing action”.

Take `Cc1nc2c(OCc3c(F)cccc3F)cccn2c1C(=O)N[C@@](C)(CO)c1ncc(CO)s1` [Example 19]: in test [1], the EC50 stood at 3.6 µM. Further, the “hind limb blood flow increasing action” value in test [2] (1 mg/kg) is given as “exhibited a blood flow increasing action”.

Turning to `Cc1nc2c(OCc3c(F)cccc3F)cccn2c1C(=O)NCc1ccccc1[C@@H](O)[C@@H](C)O` [Example 31], the EC50 in test [1] turned out to be 4.9 µM. The “hind limb blood flow increasing action” value in test [2] (3 mg/kg) was “exhibited a blood flow increasing action”.

`Cc1nnc(C(C)(CO)NC(=O)c2c(C)nc3c(OCc4c(F)cccc4F)cccn23)o1` (stereo not shown) [Example 35]: the EC50 in test [1] came out at 6.4 µM. For the same compound, in test [2] (0.3 mg/kg), the “hind limb blood flow increasing action” value is “exhibited a blood flow increasing action”.

Turning to `Cc1nc2c(OCc3c(F)cccc3F)cccn2c1C(=O)NC(C)(CO)c1ccn(C)n1` (stereo not shown) [Example 36], the EC50 in test [1] was 11 µM. In test [2] (1 mg/kg), the “hind limb blood flow increasing action” value is “exhibited a blood flow increasing action”.

As to `Cc1nnc(C(C)(CO)NC(=O)c2c(C)nc3c(OCc4c(F)cccc4F)cccn23)s1` (stereo not shown) [Example 37], in test [1], the EC50 is 7.1 µM. In addition, the “hind limb blood flow increasing action” value in test [2] (1 mg/kg) was “exhibited a blood flow increasing action”.

Regarding `Cc1cnc(C(C)(CO)NC(=O)c2c(C)nc3c(OCc4c(F)cccc4F)cccn23)o1` (stereo not shown) [Example 38], in test [1], the EC50 amounted to 2.5 µM. The “hind limb blood flow increasing action” value in test [2] (1 mg/kg) is “exhibited a blood flow increasing action”.

As for `Cc1noc(C(C)(CO)NC(=O)c2c(C)nc3c(OCc4c(F)cccc4F)cccn23)n1` (stereo not shown) [Example 39], in test [1], the EC50 came out at 4.6 µM. Besides, the “hind limb blood flow increasing action” value in test [2] (1 mg/kg) is “exhibited a blood flow increasing action”.

As to `Cc1csc(C(C)(CO)NC(=O)c2c(C)nc3c(OCc4c(F)cccc4F)cccn23)n1` (stereo not shown) [Example 40], in test [1], the EC50 amounted to 3.8 µM. Also, in test [2] (3 mg/kg), the “hind limb blood flow increasing action” value is on record as “exhibited a blood flow increasing action”.

As to `Cc1nc2c(OCc3c(F)cccc3F)cccn2c1C(=O)NC(C)(CO)c1cnn(C)c1C` (stereo not shown) [Example 93], the EC50 in test [1] was determined as 21 µM.

In the case of `Cc1nn(C)cc1C(C)(CO)NC(=O)c1c(C)nc2c(OCc3c(F)cccc3F)cccn12` (stereo not shown) [Example 94], the EC50 in test [1] is 14 µM.

`Cc1nc2c(OCc3c(F)cccc3F)cccn2c1C(=O)NC(CO)(CO)c1ccn(C)n1` [Example 95]: in test [1], the EC50 is 18 µM.

Take `Cc1nc2c(OCC3CCCCC3)cccn2c1C(=O)NC(CO)(CO)c1nnn(C(F)F)n1` [Example 97]: the EC50 in test [1] came to 3.5 µM.

With `Cc1nnc(C(CO)(CO)NC(=O)c2c(C)nc3c(OCC4CCCCC4)cccn23)o1` [Example 98], in test [1], the EC50 was 24 µM.

Take `CCc1nnc(C(CO)(CO)NC(=O)c2c(C)nc3c(OCC4CCCCC4)cccn23)o1` [Example 99]: the EC50 in test [1] worked out at 17 µM.

For the compound `Cc1nc2c(OCC3CCCCC3)cccn2c1C(=O)NC(CO)(CO)c1nnc(C2CC2)o1` [Example 100], in test [1], the EC50 came to 20 µM.

Consider `CCn1cc(C(CO)(CO)NC(=O)c2c(C)nc3c(OCc4c(F)cccc4F)cccn23)cn1` [Example 101], for which, in test [1], the EC50 came out at 26 µM.

Regarding `Cc1nc2c(OCC3CCCCC3)cccn2c1C(=O)N[C@@](C)(CO)c1cccc(-c2nnn(C)n2)c1` [Example 102], the EC50 in test [1] turned out to be 2.6 µM.

Take `Cc1nc2c(OCc3c(F)cccc3F)cccn2c1C(=O)NC(C)(CO)c1nnn(CC2CC2)n1` (stereo not shown) [Example 103]: in test [1], the EC50 was determined as 6.1 µM.

For the compound `Cc1nc2c(OCC3CCCCC3)cccn2c1C(=O)NC(C)(CO)c1nnn(CCO)n1` (stereo not shown) [Example 104], in test [1], the EC50 was 7.5 µM.

`Cc1nc2c(OCc3c(F)cccc3F)cccn2c1C(=O)NC(C)(CO)c1nnn(CC(C)(C)O)n1` (stereo not shown) [Example 105, 8-[(2,6-difluorobenzyl)oxy]-N-{1-hydroxy-2-[2-(2-hydroxy-2-methylpropyl)-2H-tetrazol-5-yl]propan-2-yl}-2-methylimidazo[1,2-a]pyridine-3-carboxamide]: in test [1], the EC50 was found to be 11 µM.

For the compound `Cc1nc2c(OCc3c(F)cccc3F)cccn2c1C(=O)NC(C)(CO)c1nnn(CC(C)O)n1` (stereo not shown) [Example 106], the EC50 in test [1] is 9.1 µM.

As to `Cc1nn(C)cc1C(CO)(CO)NC(=O)c1c(C)nc2c(OCc3c(F)cccc3F)cccn12` [Example 109], the EC50 in test [1] is 23 µM.

As to `Cc1nc2c(OCc3c(F)cccc3F)cccn2c1C(=O)N[C@@H](CO)c1nnn(C(C)C)n1` [Example 110], in test [1], the EC50 is 12 µM.

`Cc1nc2c(OCC3CCCCC3)cccn2c1C(=O)N[C@@](C)(CO)c1cccc(-c2nn[nH]n2)c1` [Example 111]: the EC50 in test [1] amounted to 0.56 µM.

Regarding `Cc1nc2c(OCC3CCCCC3)cccn2c1C(=O)N[C@@H](CO)c1ccccc1.Cl` [Preparation Example 200, 8-(cyclohexylmethoxy)-N-[(1R)-2-hydroxy-1-phenylethyl]-2-methylimidazo[1,2-a]pyridine-3-carboxamide hydrochloride, reference compound], in test [1] (maximum 100 μM), the “maximum activity of sGC relative to sGC activation without the addition of the compound” value was not below 10 fold.

On to `OCc1ccc(-c2nn(Cc3ccccc3)c3ccccc23)o1` [YC-1, [5-(1-benzyl-1H-indazol-3-yl)-2-furyl]methanol, reference compound], for which the EC50 in test [1] amounted to 50 µM. The “maximum activity relative to maximum activity of Preparation Example 200 compound” value in test [1] (maximum activity of Preparation Example 200 compound = 100%) is 52%.
